Literature values as cited in publication PMC6225257 (Molecules : A Journal of Synthetic Chemistry and Natural …, 2018).

Details: patients with chronic kidney disease; ref [18]
Source text: Here, we conjugated P88 to a paramagnetic MRI CA comprising a chelator (1,4,7,10-tetraazacyclododecane-1,4,7,10-tetraacetic acid, DOTA) complexed with GdCl3 to solve eventual limitations of the superparamagnetic CAs and pave the way towards future clinical implementation. Gadolinium (Gd)-based CAs (GBCA) are routinely employed in radiology as diagnostic agents.

effect on renal function: does not affect renal function
Substance: Gd-DOTA
